Experimental data from ChEMBL document CHEMBL1152778, “Design, synthesis, and biological evaluation of (2R,alphaS)-3,4-dihydro-2-[3-(1,1,2,2-tetrafluoroethoxy)phenyl]-5-[3-(trifluoromethoxy)-phenyl]-alpha-(trifluoromethyl)-1(2H)-quinolineethanol as potent and orally active cholesteryl ester transfer protein inhibitor” (J Med Chem, 2009).
Activity calls are given as the source filed them. The rule behind the calls is not given here.

Key:
[1] = Oral bioavailability in monkey at 10 mg/kg; type: ADME, organism-based, Macaca mulatta; settings: rhesus monkey, in vivo
Hamster [2] = assay: Increase in HDLC level in po dosed high-fat fed hamster model; type: functional, organism-based; settings: Cricetinae
Hamster [3] = assay: Increase in HDLC level in high-fat fed hamster model at 10 mg/kg, po for 5 days measured after 2 hrs of last dose; type: functional, Cricetinae
Hamster [4] = assay: Increase in HDLC level in high-fat fed hamster model at 30 mg/kg, po for 5 days measured after 2 hrs of last dose; type: functional, Cricetinae
Hamster [5] = assay: Increase in HDLC to LDLC ratio in high-fat fed hamster model at 3 to 30 mg/kg, po for 5 days measured after 2 hrs of last dose; type: functional, Cricetinae; settings: dose mg/kg 3-30
Mus musculus [6] = assay: Increase in HDLC level in po dosed normal chow diet-fed human CETP transgenic mouse model; type: functional, organism-based
Mus musculus [7] = assay: Increase in HDLC level in normal chow diet-fed human CETP transgenic mouse model at 3 mg/kg, po for 5 days measured after 2 hrs of last dose; type: functional, organism-based; set-up: dose 3 mg/kg
Mus musculus [8] = assay: Increase in HDLC level in normal chow diet-fed human CETP transgenic mouse model at 10 mg/kg, po for 5 days measured after 2 hrs of last dose; type: functional
Mus musculus [9] = assay: Increase in HDLC level in normal chow diet-fed human CETP transgenic mouse model at 30 mg/kg, po for 5 days measured after 2 hrs of last dose; type: functional
Cynomolgus monkey [10] = assay: Increase in HDLC level in po dosed normal chow diet-fed cynomolgus monkey; type: functional, organism-based; settings: Macaca fascicularis
Cynomolgus monkey [11] = assay: Increase in HDLC level in normal chow diet-fed cynomolgus monkey at 3 mg/kg, po for 5 days measured after 10 hrs of last dose; type: functional, Macaca fascicularis
Cynomolgus monkey [12] = assay: Increase in HDLC level in normal chow diet-fed cynomolgus monkey at 10 mg/kg, po for 5 days measured after 10 hrs of last dose; type: functional, Macaca fascicularis
Cynomolgus monkey [13] = assay: Increase in HDLC level in normal chow diet-fed cynomolgus monkey at 30 mg/kg, po for 5 days measured after 10 hrs of last dose; type: functional, Macaca fascicularis
Cynomolgus monkey [14] = assay: Ex vivo inhibition of CETP in po dosed normal chow diet-fed cynomolgus monkey by Roar assay; type: functional, organism-based; settings: Macaca fascicularis
Cynomolgus monkey [15] = assay: Ex vivo inhibition of CETP in normal chow diet-fed cynomolgus monkey at 3 mg/kg, po for 5 days by Roar assay; type: functional; settings: Macaca fascicularis, 120 h
Cynomolgus monkey [16] = assay: Ex vivo inhibition of CETP in normal chow diet-fed cynomolgus monkey at 10 mg/kg, po for 5 days by Roar assay; type: functional; settings: Macaca fascicularis, 120 h
Cynomolgus monkey [17] = assay: Ex vivo inhibition of CETP in normal chow diet-fed cynomolgus monkey at 30 mg/kg, po for 5 days by Roar assay; type: functional; settings: Macaca fascicularis, 120 h
[18] = Plasma concentration in normal chow diet-fed cynomolgus monkey at 3 mg/kg, po for 5 days; type: ADME, organism-based, Macaca fascicularis; set-up: dose 3 mg/kg, route oral
[19] = Plasma concentration in normal chow diet-fed cynomolgus monkey at 10 mg/kg, po for 5 days; type: ADME, organism-based, Macaca fascicularis; set-up: dose 10 mg/kg, route oral
[20] = Plasma concentration in normal chow diet-fed cynomolgus monkey at 30 mg/kg, po for 5 days; type: ADME, organism-based, Macaca fascicularis; set-up: dose 30 mg/kg, route oral

bioavailability [1]: 27% | concentration at 120 h [18]: 400 nM | concentration at 120 h [19]: 2700 nM | concentration at 120 h [20]: 5900 nM
SMILES: O[C@@H](CN1c2cccc(-c3cccc(OC(F)(F)F)c3)c2CC[C@@H]1c1cccc(OC(F)(F)C(F)F)c1)C(F)(F)F
Activity (Hamster [2]): Dose-dependent effect | Activity (Hamster [3]): 36% | Activity (Hamster [4]): 40% | Activity (Hamster [5]): 4.6 | Activity (Mus musculus [6]): Dose-dependent effect | Activity (Mus musculus [7]): Active | Activity (Mus musculus [8]): 36% | Activity (Mus musculus [9]): 25% | Activity (Cynomolgus monkey [10]): Dose-dependent effect | Activity (Cynomolgus monkey [11]): 4% | Activity (Cynomolgus monkey [12]): 16% | Activity (Cynomolgus monkey [13]): 32% | Activity (Cynomolgus monkey [14]): Dose-dependent effect | inhibition in vivo at 3 mg/kg (Cynomolgus monkey [15]): 11% | inhibition in vivo at 10 mg/kg (Cynomolgus monkey [16]): 51% | inhibition in vivo at 30 mg/kg (Cynomolgus monkey [17]): 67%
